Here are results for nine molecules from article PMC12567398, “New Assay Systems to Characterize the Broad-Spectrum Antiherpesviral and Non-Herpesviral Activity of Cyclin-Dependent Kinase (CDK) 8 Inhibitors” (Pharmaceuticals, 2025).

As usually defined, the EC50 is the concentration needed to bring the measured effect to its halfway point.

Where two headings read alike, the source gives them in different places.

Data set [1] is described as follows: in vitro. Conditions: mouse.
The test system of the next data set is MHV-68-Luc. Briefly: MHV-68-Luc luciferase reporter assay. The format is cell-based, murine herpesvirus 68. Conditions: Murine herpesvirus. Background: In a reporter assay the amount or activity of a reporter protein is the signal.
Data set [2] is described as follows: in vitro. Conditions: African green monkey.
Data set [3] can be described thus: in vitro. Conditions: human, CC50.
The nature of data set [4]: in vitro. Conditions: human.
In data set [5] the test system is Epstein–Barr virus P3HR-1. Briefly: EBV lytic assay in TPA-induced P3HR-1 cells, qPCR. The format is cell-based.
Another data set deals with EHV-1-GFP. Briefly: EHV-1-GFP antiviral assay, GFP fluorometry. The format is cell-based, equine herpesvirus 1.
The subject of a further data set is HHV-6A-GFP. The data set is described as follows: HHV-6A plaque reduction assay in HFFs. Conditions: read-out: Antiviral mean EC50 based on plaque assay measurements. In general terms: Plaques are areas of infected cells; plaque reduction assays count them against a control.
A further data set has as its system vaccinia virus VV IHD-5. Briefly: microbe, parasite or virus in culture. The format is cell-based.
Data set [6] in a line: Neutral Red uptake cell viability assay, MEF. Conditions: mouse.
Data set [7] can be described thus: Neutral Red uptake cell viability assay, COS-7. Conditions: African green monkey.
Data set [8] can be described thus: Neutral Red uptake / Alamar Blue cell viability assay, 293T. Conditions: human.
Data set [9] can be described thus: Neutral Red uptake cell viability assay, Vero. Conditions: African green monkey.
Data set [10] is described as follows: Neutral Red uptake cell viability assay, HFF. Conditions: human.
Another data set concerns HSV-1. Also on record: method as in ref 35, 38 (a number printed in a supplementary file, which may have a reference list of its own: not looked up in the article's list). Conditions: Table S1; read-out: antiviral EC50, HSV-1; cited from earlier work.
A further data set concerns HHV-6A. On the set-up: method as in ref 35 (a number printed in a supplementary file, which may have a reference list of its own: not looked up in the article's list). Conditions: Table S1; J-Jhan cells; read-out: antiviral EC50, HHV-6A (J-Jhan); cited from earlier work.
Another data set relates to HCMV. On the set-up: method as in ref 35, 38 (a number printed in a supplementary file, which may have a reference list of its own: not looked up in the article's list). Conditions: Table S1; read-out: antiviral EC50, HCMV; cited from earlier work.
A further data set relates to VZV. On the set-up: method as in ref 35, 38 (a number printed in a supplementary file, which may have a reference list of its own: not looked up in the article's list). Conditions: Table S1; read-out: antiviral EC50, VZV; cited from earlier work.
For a further data set, the system named is ChCMV. Also on record: method as in ref 35, 38 (a number printed in a supplementary file, which may have a reference list of its own: not looked up in the article's list). Conditions: Table S1; read-out: antiviral EC50, ChCMV; cited from earlier work.
The test system of another data set is RhCMV. On the set-up: method as in ref 35, 38 (a number printed in a supplementary file, which may have a reference list of its own: not looked up in the article's list). Conditions: Table S1; read-out: antiviral EC50, RhCMV; cited from earlier work.
A further data set relates to RCMV. Also on record: method as in ref 35, 38 (a number printed in a supplementary file, which may have a reference list of its own: not looked up in the article's list). Conditions: Table S1; read-out: antiviral EC50, RCMV; cited from earlier work.
In the next data set the test system is EHV-1. The data set is described as follows: EHV-1-specific qPCR of virus release into culture medium. It is filed as cell-based, equine herpesvirus 1. Conditions: EHV-1, read-out: EC50. (In general: Quantitative PCR measures a nucleic acid by following its amplification.)
The test system of a further data set is KSHV. Also on record: method as in ref 35, 38 (a number printed in a supplementary file, which may have a reference list of its own: not looked up in the article's list). Conditions: Table S1; read-out: antiviral EC50, KSHV; cited from earlier work.
For another data set, the system named is GPCMV. Also on record: method as in ref 35, 38 (a number printed in a supplementary file, which may have a reference list of its own: not looked up in the article's list). Conditions: Table S1; read-out: antiviral EC50, GPCMV; cited from earlier work.
In the next data set the test system is MCMV. On the set-up: method as in ref 35, 38 (a number printed in a supplementary file, which may have a reference list of its own: not looked up in the article's list). Conditions: Table S1; read-out: antiviral EC50, MCMV; cited from earlier work.
For another data set, the system named is HAdV. Also on record: method as in ref 35, 38 (a number printed in a supplementary file, which may have a reference list of its own: not looked up in the article's list). Conditions: Table S1; read-out: antiviral EC50, HAdV; cited from earlier work.
The mark [11] stands for this setting: human gammaherpesvirus 4, 240 h, EBV, TPA-induced P3HR-1, 10 d, read-out: Antiviral mean EC50 based on qPCR measurements.
[12] abbreviates: Orthopoxvirus vaccinia, 48 h, read-out: Antiviral mean EC50 based on luciferase measurements.
Where [13] appears, read: CC50, COS-7, listed with GFP / COS-7 (Fig 1E).
Where [14] appears, read: CC50, Vero, reference compounds (Fig 1E).
Where [15] appears, read: mean CC50, HFF, HHV-6A assay conditions (Fig 2D).

For `Nc1nc2c(ncn2COCCO)c(=O)[nH]1` [ACV, aciclovir], the CC50 at 7 d in the data set “in vitro [1]” and in “in vitro [2]” was above 100 µM in each case. Besides, the EC50 was above 5 µM with MHV-68-Luc (MHV-68-Luc, HFF); 22.2 ± 5.5 µM with MHV-68-Luc (MHV-68-Luc, MEF); 0.3 ± 0.3 µM in the data set with MHV-68-Luc (Vero, MHV-68-Luc). Moreover, the CC50 in “in vitro [3]” was above 100 µM.

`CC(C)(C)C(=O)OCOP(=O)(COCCn1cnc2c(N)ncnc21)OCOC(=O)C(C)(C)C` [ADV, adefovir dipivoxil] registered a CC50 at 10 d in the data set “in vitro [4]” of 93 µM. In addition, the EC50 in [5] (setting [11]) turned out to be 1.7 ± 0.2 µM.

The molecule `Nc1ncnc2c1ncn2CCOCP(=O)(O)O` [AFV, adefovir] gave a CC50 in the data set “in vitro [4]” above 100 µM. Moreover, the EC50 in [5] (setting [11]) was determined as 13 ± 5 µM.

For the molecule `CCCCCCCCCCCCCCCCOCCCOP(=O)(O)CO[C@H](CO)Cn1ccc(N)nc1=O` [BCV, brincidofovir], the EC50 in the data set with EHV-1-GFP came to 0.03 ± 0.01 µM; with EHV-1-GFP (COS-7) it was 0.04 ± 0.003 µM; in the data set on EHV-1-GFP (Equus caballus, Vero), 0.002 ± 0.003 µM; in the data set on HHV-6A-GFP (Human betaherpesvirus 6A) it was 0.002 ± 0.001 µM; in the data set with vaccinia virus VV IHD-5 (setting [12]), 1.9 ± 0.4 µM; with MHV-68-Luc (COS-7, MHV-68-Luc, COS-7), 0.2 ± 0.04 µM. Also, the EC50 in the data set with MHV-68-Luc (MHV-68-Luc, HFF) was above 0.5 µM; in the data set on MHV-68-Luc (MHV-68-Luc, MEF), 0.1 ± 0.07 µM; with MHV-68-Luc (Vero, MHV-68-Luc), 0.01 ± 0.003 µM. Further, the CC50 at 7 d in [6] is above 10 µM; in data set [9] (CC50, Vero (Fig 4F)) it was above 10 µM; in data set [9] (setting [14]), 1.3 ± 1.4 µM. Besides, the CC50 at 4 d in data set [7] (CC50, COS-7 (Fig 4F)) is above 10 µM; in [7] (setting [13]) it was 9.8 ± 1.9 µM. This molecule also yielded a CC50 at 2 d in [8] above 10 µM. Also, the CC50 is 19 ± 3 µM in [10] (CC50, HFF, reference compounds (Fig 1E)) and above 10 µM in data set [10] (setting [15]).

On to `Nc1ccn(C[C@@H](CO)OCP(=O)(O)O)c(=O)n1` [CDV, cidofovir], for which the EC50 with EHV-1-GFP (COS-7) was determined as 3.2 ± 3.8 µM; in the data set with EHV-1-GFP (Equus caballus, Vero), 4.5 ± 2.4 µM; with HHV-6A-GFP (Human betaherpesvirus 6A), 0.4 ± 0.1 µM. The molecule further returned a CC50 at 4 d in data set [7] (setting [13]) of 85.6 ± 6.6 µM. This molecule also returned a CC50 at 7 d in [9] (setting [14]) above 100 µM. The same molecule showed a CC50 in [10] (setting [15]) above 100 µM.

As for `O=C(O)P(=O)(O)O` [FOS, foscarnet], the CC50 at 7 d was above 1000 µM in [6] and above 1000 µM in data set [9] (CC50, Vero (Fig 4F)). For the same molecule, the EC50 in the data set with MHV-68-Luc (MHV-68-Luc, HFF) was above 500 µM; with MHV-68-Luc (MHV-68-Luc, MEF), 41.5 ± 17.5 µM; in the data set with MHV-68-Luc (Vero, MHV-68-Luc), 36.4 ± 10.8 µM. For the same molecule, the CC50 in data set [10] (CC50, HFF (Fig 4F)) is above 1000 µM.

In the case of `COc1cccc(N2CCN(C3=Nc4c(F)cccc4[C@H](CC(=O)O)N3c3cc(C(F)(F)F)ccc3OC)CC2)c1` [LMV, letermovir], the EC50 was above 50 µM with vaccinia virus VV IHD-5 (setting [12]); above 50 µM with MHV-68-Luc (MHV-68-Luc, HFF); above 50 µM in the data set on MHV-68-Luc (MHV-68-Luc, MEF); 44 ± 3.2 µM in the data set on MHV-68-Luc (Vero, MHV-68-Luc).

Consider `CC(C)Nc1nc2cc(Cl)c(Cl)cc2n1[C@H]1O[C@@H](CO)[C@H](O)[C@@H]1O` [MBV, maribavir], for which the CC50 at 7 d in data set [6] was 179 ± 10 µM; in data set [9] (CC50, Vero (Fig 4F)) it was above 1000 µM. In data set [7] (CC50, COS-7 (Fig 4F)), the CC50 at 4 d is above 100 µM. In addition, the EC50 with MHV-68-Luc (COS-7, MHV-68-Luc, COS-7) is above 50 µM; in the data set on MHV-68-Luc (MHV-68-Luc, HFF), 269 ± 55.5 µM; in the data set on MHV-68-Luc (MHV-68-Luc, MEF), 59.6 ± 2.2 µM; with MHV-68-Luc (Vero, MHV-68-Luc), 88.9 ± 13.6 µM. Further, the CC50 in [10] (CC50, HFF (Fig 4F)) stood at 163 ± 9 µM.

In the case of `Cc1n[nH]c2ncc(C(=O)N3CCC[C@H]3c3ccc(Cl)cc3)cc12` [MSC-2530818], the EC50 with HSV-1 was 42.3 ± 4.9 µM; in the data set on HHV-6A, above 50 µM; in the data set with HCMV, 0.001 ± 0.0007 µM; in the data set on HHV-6A-GFP (HHV-6A, HFF) it was 0.2 ± 0.4 µM; in the data set with vaccinia virus VV IHD-5 (read-out: antiviral EC50, VV), above 50 µM; with VZV it was above 50 µM. Also, the EC50 was 0.02 ± 0.03 µM in the data set with ChCMV; 0.002 ± 0.001 µM with RhCMV; 0.003 ± 0.008 µM with RCMV; 0.7 ± 0.9 µM in the data set on EHV-1 (qPCR / COS-7); 0.08 ± 0.2 µM in the data set with EHV-1 (qPCR / HFF); above 40 µM with KSHV. Also, the EC50 in the data set on GPCMV is 0.03 ± 0.05 µM; in the data set on MCMV it was 0.02 ± 0.02 µM; with SARS-CoV-2 d6-YFP (read-out: Antiviral mean EC50 based on YFP measurements, SARS-CoV-2 d6-YFP, Caco-2, […]), at least 15.4 µM; in the data set on SARS-CoV-2 d6-YFP (read-out: antiviral EC50, SARS-CoV-2, Table S1) it was 15.4 ± 6.4 µM; in the data set on HAdV, 0.3 ± 0.3 µM; in data set [5] (Table S1, read-out: antiviral EC50, EBV), 1.4 ± 0.6 µM. For the same molecule, the CC50 in the data set on Vero cells, in the data set with MEFs, in the data set on Caco-2 cells, in the data set on 293T-tdTom-Luc cells and in the data set on P3HR-1 cells was above 100 µM throughout. In the data set with SARS-CoV-2 d6-YFP (in words), the “CDK8 inhibitor sensitivity of SARS-CoV-2 in Caco-2 cells” value is on record as “low level of sensitivity”.
